# According to patent publication US5869460A, “Sulfated and phosphated saccharide derivatives, process for the preparation of the same and use thereof” (Sanwa Kaguku Kenkyusho Co., Ltd., priority 1995, dated 1999):
# Tests used:
# [1] = tested on: lung damage model induced by cobra venom factor (CVF); infiltration in neutrocyte (myeloperoxidase); experiment: Anti-inflammatory action to lung damage model induced by CVF: myeloperoxidase activity as index of infiltration in neutrocyte; type: in vivo, Lewis rats; conditions: Rattus norvegicus, iv, 0.5 h, read-out: Inhibition rate (%), myeloperoxidase activity as index of infiltration in neutrocyte
# Method: (§1) Anti-inflammatory action to lung damage model induced by CVF Compounds obtained by Examples and an exemplary known compound (sulfatide) were selected as Test Compounds to check an inflammatory action thereof to a lung damage model induced by cobra venom factor (CVF), in accordance with the method described by M. S. Mulligan et al ["J. IMMUNOL.", Vol.151, page 6410 (1993); and "INT. IMMUNOL.", Vol. 7, page 1107 (1995)].
# (§2) Namely, the test compound was intravenously injected by an amount of 0.2 mg/rat to test animals (Lewis rats, age of 8 weeks, 5 animals in each group). After lapsed 5 minutes from administration, CVF (20U/2 ml/kg) was administered in a tail vein, and after 30 minutes, a laparotomy was carried out under nembutal anesthesia to perfuse the lung with phosphate-buffered saline (PBS, pH7.4) by injecting the same from right ventricle and to exenterate the lung. The extracted lung was homogenized with phosphate buffer (pH 7.4), centrifuged to collect a supernatant, and determined absorbance which was admitted as index of bleeding (It measures an amount of hemoglobin and thus detection wave-length was set to 541 nm).
# On the other hand, the precipitation obtained by centrifugation was sonicated in the presence of cetrimide and centrifuged to obtain a supernatant, an activity myeloperoxidase therein being measured as an index of infiltration in neutrocyte.
# (§3) Each inhibition rate (%) was calculated by
# (§4) 100×[1-(value of test compound-value of negative control)/(value of positive control-value of negative control)].
# [2] = tested on: lung damage model induced by cobra venom factor (CVF); bleeding; experiment: Anti-inflammatory action to lung damage model induced by CVF: index of bleeding (hemoglobin absorbance, 541 nm, in lung homogenate supernatant); type: in vivo, Lewis rats; conditions: Rattus norvegicus, iv, 0.5 h, read-out: Inhibition rate (%), index of bleeding
# Method: as §1, §2, §3, §4
SMILES,inhibition in vivo at 0.2 mg [1] [%],inhibition in vivo at 0.2 mg [2] [%]
"CCCCCCCCCCCCCCC(CCCCCCCCCCCCCC)CO[C@@H]1O[C@H](CO)[C@H](O)[C@H](OP(=O)(O)O)[C@H]1O[C@@H]1O[C@@H](C)[C@@H](O)[C@@H](O)[C@@H]1O [Example 27-2, disodium 2-tetradecylhexadecyl O-α-L-fucopyranosyl-(1→2)-β-D-galactopyranoside 3-phosphate]",58,62
"CC(C)CO[C@@H]1O[C@H](COS(=O)(=O)O)[C@H](O)[C@H](OS(=O)(=O)O)[C@H]1O [Example 1-2, disodium 2-methylpropyl β-D-galactopyranoside 3,6-disulfate]",22,16
"CCCC(CCC)CO[C@@H]1O[C@H](COS(=O)(=O)O)[C@H](O)[C@H](OS(=O)(=O)O)[C@H]1O[C@@H]1O[C@@H](C)[C@@H](O)[C@@H](O)[C@@H]1O [Example 25, Disodium 2-propylpentyl O-α-L-fucopyranosyl-(1→2)-β-D-galactonyranoside 3,6-disulfate]",50,56
"CCCC(CCC)CO[C@@H]1O[C@H](CO)[C@H](O)[C@H](OS(=O)(=O)O)[C@H]1O [Example 4, Sodium 2-pronylpentyl β-D-galactopyranoside 3-sulfate]",58,39
"CCCC(CCC)CO[C@@H]1O[C@H](COP(=O)(O)O)[C@H](OP(=O)(O)O)[C@H](OP(=O)(O)O)[C@H]1OP(=O)(O)O [Example 13, Octasodium 2-propylpentyl β-D-galactopyranoside 2,3,4,6-tetranhosphate]",46,43
"CC(C)CO[C@@H]1O[C@H](CO)[C@@H](O[C@@H]2O[C@H](CO)[C@H](O)[C@H](OS(=O)(=O)O)[C@H]2O)[C@H](O)[C@H]1O [Example 9-1, sodium 2-methylpropyl O-β-D-galactopyranosyl-(1→4)-β-D-glucopyranoside 3'-sulfate]",58,84
"CCCC(CCC)CO[C@@H]1O[C@H](COS(=O)(=O)O)[C@H](O)[C@H](OS(=O)(=O)O)[C@H]1OS(=O)(=O)O [Example 7-1, Trisodium 2-propylpentyl β-D-galactopyranoside 2,3,6-trisulfate]",26,36
"CCCCCCCCCCCCCCC(CCCCCCCCCCCCCC)CO[C@@H]1O[C@H](COP(=O)(O)O)[C@H](OP(=O)(O)O)[C@H](OP(=O)(O)O)[C@H]1OP(=O)(O)O [Example 14, Octasodium 2-tetradecylhexadecyl β-D-galactopyranoside2,3,4,6-tetraphosphate]",41,55
"CC(C)CO[C@@H]1O[C@H](COS(=O)(=O)O)[C@H](O)[C@H](O)[C@H]1O [Example 2, Sodium 2-methylpropyl β-D-galactopyranoside 6-sulfate]",32,36
"CCCCCCCCCCCCCCC(CCCCCCCCCCCCCC)CO[C@@H]1O[C@H](CO)[C@H](O)[C@H](OP(=O)(O)O)[C@H]1O[C@@H]1O[C@@H](C)[C@@H](O)[C@@H](OP(=O)(O)O)[C@@H]1O [Example 28-2, tetrasodium 2-tetradecylhexadecyl O-α-L-fucopyranosyl-(1→2)-β-D-galactopyranoside 3,3'-diphosphate]",55,63
"CCCCCCCCCCCCCCC(CCCCCCCCCCCCCC)CO[C@@H]1O[C@H](CO)[C@@H](O[C@@H]2O[C@H](CO)[C@H](OP(=O)(O)O)[C@H](OP(=O)(O)O)[C@H]2O)[C@H](O)[C@H]1O [Example 22, Tetrasodium 2-tetradecylhexadecyl O-β-D-galactopyranosyl-(1→4)-β-D-glucopyranoside 3',4'-diphosphate]",58,65
"CCCCCCCCCCCCCCCCCCCCCCC(CCCCCCCCCCCCCCCC)CO[C@@H]1O[C@H](CO)[C@H](O)[C@H](OS(=O)(=O)O)[C@H]1O (stereo partly drawn) [Example 8, Sodium 2-hexadecyltetracosyl β-D-galactopyranoside 3-sulfate]",51,53
"CCCC(CCC)CO[C@@H]1O[C@H](CO)[C@@H](OP(=O)(O)O)[C@H](OP(=O)(O)O)[C@H]1OP(=O)(O)O [Example 20, Hexasodium 2-propylpentyl δ-D-glucopyranoside 2,3,4-triphosphate]",40,45
"CC(C)CO[C@@H]1O[C@H](CO)[C@@H](O[C@@H]2O[C@H](COS(=O)(=O)O)[C@H](O)[C@H](OS(=O)(=O)O)[C@H]2O)[C@H](O)[C@H]1O [Example 9-2, disodium 2-methylpropyl O-β-D-galactopyranosyl-(1→4)-β-D-glucopyranoside 3',6'-disulfate]",86,100
"CC(C)CO[C@@H]1O[C@H](CO)[C@H](OP(=O)(O)O)[C@H](OP(=O)(O)O)[C@H]1O [Example 15, Tetrasodium 2-methylpropyl β-D-galactopyranoside 3,4-diphosphate]",44,45
"CCCC(CCC)CO[C@@H]1O[C@H](CO)[C@@H](O[C@@H]2O[C@H](CO)[C@H](OP(=O)(O)O)[C@H](OP(=O)(O)O)[C@H]2O)[C@H](O)[C@H]1O [Example 21, Tetrasodium 2-propylpentyl O-β-D-galactopyranosyl-(1→4)-β-D-glucopyranoside 3',4'-diphosphate]",52,64
"CCCCCCCCCCCCCCC(CCCCCCCCCCCCCC)CO[C@@H]1O[C@H](CO)[C@H](O)[C@H](OS(=O)(=O)O)[C@H]1O[C@@H]1O[C@@H](C)[C@@H](O)[C@@H](O)[C@@H]1O [Example 27-1, Sodium 2-tetradecylhexadecyl O-α-L-fucopyranosyl-(1→2)-β-D-galactopyranoside 3-sulfate]",61,65
"CC(C)CO[C@@H]1O[C@H](COS(=O)(=O)O)[C@H](OS(=O)(=O)O)[C@H](OS(=O)(=O)O)[C@H]1O [Example 3-1, trisodium 2-methylpropyl β-D-galactopyranoside 3,4,6-trisulfate]",36,27
"CC(C)CO[C@@H]1O[C@H](CO)[C@H](O)[C@H](OS(=O)(=O)O)[C@H]1O [Example 1-1, Sodium 2-methylpropyl β-D-galactopyranoside 3-sulfate]",22,22
"CCCCCCCCCCCCCCC(CCCCCCCCCCCCCC)CO[C@@H]1O[C@H](COS(=O)(=O)O)[C@H](O)[C@H](OS(=O)(=O)O)[C@H]1O[C@@H]1O[C@@H](C)[C@@H](O)[C@@H](O)[C@@H]1O [Example 29, Disodium 2-tetradecylhexadesyl O-α-L-fuconyranosyl-(1→2)-β-D-galactopyranoside 3,6-disulfate]",65,67
"CCCCCCCCCCCCCCC(CCCCCCCCCCCCCC)CO[C@@H]1O[C@H](CO)[C@H](OP(=O)(O)O)[C@H](OP(=O)(O)O)[C@H]1O [Example 17, Tetrasodium 2-tetradecylhexadecyl β-D-galactopyranoside 3,4-dinhosphate]",73,74
